Assay results published in PMC9046208, “Foldamers reveal and validate therapeutic targets associated with toxic α-synuclein self-assembly” (Nature Communications, 2022).

Assays:
[1] = target: T1, αS seeds extracted from PD brain (Homo sapiens, UniProt P37840); assay: PMCA assay with αS seeds from PD brain (PK digestion, western blot); type: biochemical; settings: SK-129 equimolar
T1 construct: Synuclein Residues (1-140); made in house; host or cells: Monomer: Escherichia coli BL21(DE3), WT αS in pET11 (Addgene); Seeds: fixed human substantia nigra tissue from post mortem PD brain
Excerpt: Fixed brain tissues were obtained from the Carroll A. Campbell, Jr. Neuropathology Lab (CCNL) brain bank at the Medical University of South Carolina (Dr. Steve Carroll, Director) and from Dr. Greg Gerhardt’s laboratory at the University of Kentucky. The seeds were extracted from the post mortem brain by following a published protocol with a slight modification. The brain was sliced in 1 cm slabs as soon as possible to avoid long post mortem intervals and fixed free-floating in a solution of 4% paraformaldehyde in 1x PBS buffer (4% paraformaldehyde in 1x PBS buffer). […] Following fixation, tissue was transferred to a cryoprotectant solution (30% glycerol, 30% ethylene glycol, and 40% 1x PBS buffer, v,v) and kept at −20 °C until dissection. A total of Sixteen brain regions were dissected after fixation and processed for neuropathological diagnosis of PD according to a published protocol. A diagnosis was conducted, which included staining with H & E, Bielshowsky’s silver stain, as well as p-Tau, Amyloid-β, and αS immunohistochemistry (See main manuscript Fig. 4b, c). From the total tissue amount, ~100 mg of fixed substantia nigra tissue was homogenized using a Bio-Gen PRO200 Tissue Homogenizer (PRO Scientific Inc., Oxford, CT) in 1x PBS buffer (10%, w/v). The homogenate was centrifuged at a rate of 19,000 × g for 12 min. […]

[2] = system: HEK cells expressing αS-A53T-YFP; assay: MTT viability of HEK cells treated with PMCA samples / PD fibrils; type: cell-based; settings: for Relative cell viability (Supp. Figure 27): HEK cells, PD+SK-129
Procedure: The HEK293 cells that stably express αS-A53T-YFP and αS-YFP were grown in DMEM with 10% FBS and 1% pen/strep and cultured in an incubator at 37 °C and 5% CO2(g). A total of 60,000 cells per well in 300 µL media were plated in a µ-slide eight-well plate (Ibidi, Munich, Germany) and incubated for 24 h to adhere to the plate. […] Next, the plate was incubated for 24 h, followed by the addition of 30 µL of 1x PBS buffer containing MTT dye (in 1x PBS buffer, 5 mg/mL) to each well. The plates were wrapped in aluminum foil and incubated for 3 h. After 3 h, all liquid was aspirated carefully without disturbing the formazan crystals. To each well, 300 µL of DMSO was added to dissolve the crystals. Once dissolved, the DMSO solution was transferred to a clear 96-well plate (100 µL/well). The absorbance was read on a 96-well plate reader at 570 nm. The cytotoxicity of the HEK cells was monitored for up to 4 days.
The seeds were generated by aggregating recombinant αS (100 µM) in the absence and presence of SK-129 at an equimolar ratio under the ThT aggregation kinetic conditions for seven days. In the case of seeds from the brain, we used a PMCA sample (5th cycle) generated from the brain seeds in the absence and presence of SK-129 at an equimolar ratio.
Supplementary Fig. 27. Effect of SK-129 on the PD fibrils catalyzed aggregation of αS templated by PMCA technique. a, The representative confocal images of HEK cells after treatment with PMCA samples from the PD and control brain. The green color images are due to the intracellularly expressed αSA53T-YFP. The αSA53T-YFP inclusions, αS-pS-129, and DAPI are represented by green, red, and blue colors. The αSA53T-YFP inclusions are indicated by white arrows. b, The αSA53T-YFP inclusions, P62, and DAPI are represented by green, red, and blue colors. The αSA53T-YFP inclusions are indicated by white arrows. c, The statistical analysis of the relative viability of HEK cells treated with the indicated conditions for 24 h determined using the MTT-reduction toxicity assay. The data were expressed as mean and the error bars report the s.e.m.
(n = 4 independent cell viability experiments and each n consisted of 4 technical replicates). The statistical analysis was performed using ANOVA with Tukey’s multiple comparison test. *p<0.05, **p<0.01, ***p<0.001, ****p<0.0001. Source data are provided as a Source Data file.

For `COC(=O)c1cc(OCC(=O)O)c2cccc(NC(=O)c3cc(OC(C)C)c4cccc(NC(=O)c5cc(OCC(=O)O)c6cccc(NC(=O)c7cc(OC(C)C)c8cccc([N+](=O)[O-])c8n7)c6n5)c4n3)c2n1` [SK-129], the “state of PMCA sample (cycle 5) of PD brain extract” value [1] was “neither aggregated nor PK resistant”, the “Relative cell viability (Supp. Figure 27)” value (“Relative cell viability” below) ([2]; trial 1) was 0.879 and the “Relative cell viability” value ([2]; trial 2) was 0.798. For the same molecule, the “Relative cell viability” value ([2]; trial 3) was 0.821, the “Relative cell viability” value ([2]; trial 4) was 0.823 and the “Relative cell viability” value ([2]; trial 5) was 0.659. The “Relative cell viability” value ([2]; trial 6) was 0.702, the “Relative cell viability” value ([2]; trial 7) was 0.735 and the “Relative cell viability” value ([2]; trial 8) was 0.834. For the same molecule, the “Relative cell viability” value ([2]; trial 9) was 0.865, the “Relative cell viability” value ([2]; trial 10) was 0.808 and the “Relative cell viability” value ([2]; trial 11) was 0.853. The “Relative cell viability” value ([2]; trial 12) was 0.884, the “Relative cell viability” value ([2]; trial 13) was 0.902 and the “Relative cell viability” value ([2]; trial 14) was 0.783. The “Relative cell viability” value ([2]; trial 15) was 0.732, the “Relative cell viability” value ([2]; trial 16) was 0.693 and the “cell viability of HEK cells” value ([2]; PD fibrils+SK-129, 24 h, MTT, PD fibrils alone 50.5 ± 5.4%) was 85.6 ± 7.8%.
